“And” between values parts separate entries of the source, which are not always exact repeats. Equal values may be shown once.
Key:
[1] = tested on: participants with narcolepsy; parameters: species or system human; conditions: in vivo
[2] = tested on: participants with narcolepsy; test: Standardized on-road driving test, narcolepsy study; type: in vivo, human; conditions: for SDLP, observed mean (SD) / SDLP, median / SDLP, median difference (range), solriamfetol - placebo: day 7, 300 mg/day; for SDLP, median / SDLP, median difference (range), solriamfetol - placebo: mITT
Protocol: In this randomized, double-blind, placebo-controlled, crossover study, driving performance during a 1-hour on-road driving test was assessed at 2 hours and 6 hours post-dose following 7 days of treatment with solriamfetol (150 mg/day for 3 days, followed by 300 mg/day for 4 days) or placebo. The primary endpoint was standard deviation of lateral position (SDLP) at 2 hours post-dose.
At the end of each treatment period, a standardized on-road driving test (Verster & Roth, 2011) was conducted at 2 hours and at 6 hours after administration of drug or placebo (FIG. 1A). For each test (~1 hour in duration), participants drove a specially instrumented vehicle over a 100 km (~62 miles) primary highway circuit; they were accompanied by a licensed driving instructor with access to dual controls (brakes, clutch, accelerator). Participants were instructed to maintain both a steady lateral position between the delineated boundaries of the slower (right) traffic lane and a constant speed of 95 km/h (~59 mph). Participants were permitted to deviate from these instructions only to pass a slower vehicle, to respond to slower traffic ahead, or to exit and reenter the highway at the turnaround point (these events were removed for the purpose of data analysis by 2 experienced editors of the driving data). Vehicle speed and lateral distance to the left-lane line were continuously recorded, and the data stored on an onboard computer. The driving test could be stopped by the participant or by the accompanying driving instructor if considered it unsafe to continue.
The primary outcome assessment from the driving tests was standard deviation of lateral position (SDLP) in centimeters—a measure of “weaving” or road-tracking control (Ramaekers, 2017; Verster & Roth, 2011). […] Standard deviation of speed and number of lane drifts (defined as deviations>100 cm from the absolute lateral position within an 8-second window) were also determined from driving test data.
Change in SDLP was analyzed with a repeated mixed-effects analysis of variance (ANOVA).
Maximally selected McNemar symmetry analyses (Laska, Meisner, & Wanderling, 2012) were used to detect asymmetry in the distribution of the change in driving performance at 2 hours and 6 hours post-dose. Single McNemar tests were used to analyze the difference in proportions of participants with improved or impaired driving performance at relevant thresholds. Thresholds of 1.0, 1.5, 2.0, 2.5, 3.0, and 3.5 cm were used.
Additional secondary efficacy measures (standard deviation of speed, number of lane drifts, and THAT scores) were analyzed using a similar ANOVA method as described for SDLP. No multiplicity adjustments were made in the efficacy analyses for multiple endpoints, and all p values are therefore nominal.

Compound: NC(=O)OC[C@H](N)Cc1ccccc1 [Solriamfetol, (R)-2-amino-3-phenylpropyl carbamate]
- PVT errors, LS mean (SE) [1]: 1.11 (0.42) n/trial and 1.39 (0.42) n/trial and 1.34 (0.32) n/trial
- PVT inverse reaction time, LS mean (SE) [1]: 3.41 (0.07) 1/ms and 3.80 (0.07) 1/ms and 3.72 (0.07) 1/ms
- PVT lapses, LS mean (SE) [1]: 6.63 (1.61) n/trial and 3.35 (1.61) n/trial and 4.52 (1.61) n/trial
- PVT mean reaction time, LS mean (SE) [1]: 582 (148.4) ms and 317 (148.4) ms and 319 (148.4) ms
- maximum McNemar test, improved vs impaired driving ([2]; 2 hours and 6 hours post-dose, thresholds 1.0 to 3.5 cm): did not show asymmetry
- number of lane drifts, LS mean (SE) ([2]; 2 hours post-dose): 2.3 (0.8)
- number of lane drifts, LS mean difference vs placebo ([2]; 2 hours post-dose): −0.98
- standard deviation of speed, LS mean (SE) ([2]; 2 hours post-dose): 2.8 (0.2) km/h
- standard deviation of speed, LS mean difference vs placebo ([2]; 2 hours post-dose): −0.22 km/h
- SDLP, observed mean (SD) ([2]; 2 hours post-dose): 19.0 (3.6) cm and 18.97 cm
- SDLP, median ([2]; 2 hours post-dose): 19.08 cm
- SDLP, median difference (range), solriamfetol - placebo ([2]; 2 hours post-dose): −1.9 (−6.7 to 2.6) cm
- SDLP, median difference (range), solriamfetol - placebo ([2]; 2 hours post-dose, listed as solriamfetol): −1.9 cm and −1.90 cm
- participants with incomplete driving tests ([2]; 2 hours post-dose, on solriamfetol): Four
- number of lane drifts, LS mean (SE) ([2]; 6 hours post-dose): 3.6 (0.8)
- number of lane drifts, LS mean difference vs placebo ([2]; 6 hours post-dose): −0.08
- standard deviation of speed, LS mean (SE) ([2]; 6 hours post-dose): 3.1 (0.2) km/h
- standard deviation of speed, LS mean difference vs placebo ([2]; 6 hours post-dose): −0.11 km/h
- SDLP, observed mean (SD) ([2]; 6 hours post-dose): 19.8 (3.5) cm
- SDLP, median ([2]; 6 hours post-dose): 19.59 cm
- SDLP, median difference (range), solriamfetol - placebo ([2]; 6 hours post-dose): −1.1 (−12.1 to 6.0) cm
- SDLP, median difference (range), solriamfetol - placebo ([2]; 6 hours post-dose, listed as solriamfetol): −1.1 cm
- participants with incomplete driving tests ([2]; 6 hours post-dose, on solriamfetol): Three
- driving tests stopped ([2]; on solriamfetol, 7/44 tests): 16%
- participants with ≥1 incomplete test ([2]; while on solriamfetol, either time point): 5

— patent US20260199282A1, “METHODS AND COMPOSITIONS FOR IMPROVING DRIVING PERFORMANCE” (priority 2022, published 2026)
